This note sets out measurements from patent US20040106683A1, “Uses of benzylideneamino guanidines as ligands to the melnocortin receptors” (priority 2001, published 2004).

SMILES strings stand for the structures. Where a name gives a salt, the structure may show the parent alone.

In data set [1] the target is T1, recombinant human MC4 receptor (Homo sapiens, UniProt P32245).
T1 construct: expressed in transfected cells; host or cells: Sf9 insect cells or COS cells
Description: Affinity for the MC4-receptor, displacement of 125I-NDP-MSH in transfected Sf9 or COS cells. The settings on record: nb = non-binding, i.e. no affinity, read-out: Affinity for MC-receptors, Ki, MC4. The procedure: (§1) Test 2. Affinity for the MC3-Receptors, the MC4-Receptors and the MC5-Receptors
(§2) Essentially, the affinity of the compounds for the different melanocortin receptors were determined by using either insect cells (Sf9) or COS cells, which were transfected with recombinant human MC3, MC4 or MC5 receptors. For the determination of the affinity for the MC1 receptor, B16 mouse melanoma cells were used, which endogenously express the (mouse) MC1 receptor.
(§3) Incubation was performed in 96-well plates, using 50,000 cells/well (Sf9 or COS cells) up to 200,000 cells/well (mouse melanoma cells).
(§4) After the incubation, the cells were washed twice to get rid of the excess tracer and compound, and the cells were lysed with 0.1 M NaOH. The lysate was counted in a gamma-counter, binding was calculated and the affinity determined.
A general note: Displacement assays read how much labelled ligand stays bound in the presence of the test substance.

For data set [2], the target named is T2, MC1 receptor (Mus musculus, UniProt Q01727).
T2 construct: B16 mouse melanoma cells were used, which endogenously express the (mouse) MC1 receptor; endogenous in cells; host or cells: B16 mouse melanoma cells
T2 sequence (Q01727 whole entry): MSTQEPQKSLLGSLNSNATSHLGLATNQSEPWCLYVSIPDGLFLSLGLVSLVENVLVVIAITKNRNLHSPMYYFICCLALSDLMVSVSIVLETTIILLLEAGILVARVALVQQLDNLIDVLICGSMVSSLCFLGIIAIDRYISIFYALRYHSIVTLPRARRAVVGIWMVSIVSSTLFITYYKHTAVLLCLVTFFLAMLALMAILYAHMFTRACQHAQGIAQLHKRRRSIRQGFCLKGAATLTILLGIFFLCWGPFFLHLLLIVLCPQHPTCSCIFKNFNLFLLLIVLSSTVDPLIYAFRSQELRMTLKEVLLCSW
Description: Affinity for the MC1-receptor, displacement of 125I-NDP-MSH in B16 mouse melanoma cells. The settings on record: endogenous mouse MC1, nb = non-binding, i.e. no affinity, read-out: Affinity for MC-receptors, Ki, MC1. The procedure:
Test 1. Affinity for the MC1-Receptor
as §2, §3, §4

Data set [3] has as its target T3, recombinant human MC3 receptor (Homo sapiens, UniProt P41968).
T3 construct: expressed in transfected cells; host or cells: Sf9 insect cells or COS cells
Description: Affinity for the MC3-receptor, displacement of 125I-NDP-MSH in transfected Sf9 or COS cells. The settings on record: nb = non-binding, i.e. no affinity, read-out: Affinity for MC-receptors, Ki, MC3. The procedure:
as §1, §2, §3, §4

The target in data set [4] is T4, recombinant human MC5 receptor (Homo sapiens, UniProt P33032).
T4 construct: expressed in transfected cells; host or cells: Sf9 insect cells or COS cells
T4 sequence (P33032 whole entry): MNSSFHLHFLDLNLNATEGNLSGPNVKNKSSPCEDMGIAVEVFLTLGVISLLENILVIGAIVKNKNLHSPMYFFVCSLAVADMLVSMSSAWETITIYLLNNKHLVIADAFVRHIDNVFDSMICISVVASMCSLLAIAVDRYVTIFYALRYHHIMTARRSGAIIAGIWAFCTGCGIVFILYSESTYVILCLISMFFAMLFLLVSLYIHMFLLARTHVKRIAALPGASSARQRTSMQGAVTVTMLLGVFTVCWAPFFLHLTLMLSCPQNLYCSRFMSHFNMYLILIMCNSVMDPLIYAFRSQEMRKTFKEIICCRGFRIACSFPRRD
Description: Affinity for the MC5-receptor, displacement of 125I-NDP-MSH in transfected Sf9 or COS cells. Conditions: nb = non-binding, i.e. no affinity, read-out: Affinity for MC-receptors, Ki, MC5. The procedure: as §1, §2, §3, §4

T1 sequence (P32245 whole entry): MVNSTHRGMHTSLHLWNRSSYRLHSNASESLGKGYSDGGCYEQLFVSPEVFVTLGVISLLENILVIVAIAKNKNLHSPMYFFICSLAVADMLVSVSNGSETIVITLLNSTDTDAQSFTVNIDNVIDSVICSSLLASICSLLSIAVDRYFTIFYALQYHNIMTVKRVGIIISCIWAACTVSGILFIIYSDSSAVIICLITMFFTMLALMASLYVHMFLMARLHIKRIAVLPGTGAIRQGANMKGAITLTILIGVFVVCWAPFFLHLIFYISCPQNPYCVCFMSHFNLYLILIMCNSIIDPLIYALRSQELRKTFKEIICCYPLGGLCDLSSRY
T3 sequence (P41968 whole entry): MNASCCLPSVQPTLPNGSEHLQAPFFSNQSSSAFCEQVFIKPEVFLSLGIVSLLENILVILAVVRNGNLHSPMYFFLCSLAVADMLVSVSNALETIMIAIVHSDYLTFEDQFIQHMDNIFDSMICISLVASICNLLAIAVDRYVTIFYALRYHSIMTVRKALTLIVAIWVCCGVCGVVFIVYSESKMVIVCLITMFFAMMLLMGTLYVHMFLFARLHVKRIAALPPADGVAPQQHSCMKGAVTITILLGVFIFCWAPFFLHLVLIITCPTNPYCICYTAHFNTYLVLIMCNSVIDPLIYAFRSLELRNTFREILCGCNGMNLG

The term melting point denotes the temperature of the solid-liquid transition. The molecule `N=C(N)NN=Cc1cccc(Br)c1` (as salt: salt) [1:21, N-(3-Bromobenzylideneamino)guanidine] displayed a melting point of 160 to 161.5 °C.

`N=C(N)NN=Cc1ccccc1Br` (as salt: HCl) [1:14, N-(2-Bromobenzylideneamino)guanidine] showed a melting point of 197 to 201 °C.

The term Ki denotes the equilibrium dissociation constant of an inhibitor or competing ligand from its target. As for `N=C(N)NN=Cc1cc2c(cc1[N+](=O)[O-])OCO2` [1:17, N-(4,5-Methylenedioxy-2-nitrobenzylideneamino)guanidine], the Ki in data set [1] was 28 µM; in data set [2], 2100 nM; in data set [3], more than 200 µM; in data set [4] it was more than 200 µM.

In the case of `N=C(N)NN=Cc1cc(O)ccc1Br` (as salt: HCl) [1:15, N-(2-Bromo-5-Hydroxybenzylideneamino)guanidine], the melting point was 223 to 228 °C (dec.).

In the case of `N=C(N)NN=Cc1cccc(Br)c1` [1:21, N-(3-Bromobenzylideneamino)guanidine], the Ki was 5.4 µM in data set [1], 1200 nM in data set [2], 46 µM in data set [3] and 30.6 µM in data set [4].

For the molecule `N=C(N)NN=Cc1ccccc1Br` [1:14, N-(2-Bromobenzylideneamino)guanidine], the figures for the Ki in data set [1], in data set [2] and in data set [3] were 0.9 µM, 600 nM and 74.6 µM, respectively.

For `N=C(N)NN=Cc1cc(O)ccc1Br` [1:15, N-(2-Bromo-5-Hydroxybenzylideneamino)guanidine], the figures for the inhibitory constant (Ki) in data set [1], in data set [2] and in data set [4] were 6.8 µM, 1300 nM and 68 µM, respectively.

`N=C(N)NN=Cc1cc2c(cc1[N+](=O)[O-])OCO2` (as salt: salt) [1:17, N-(4,5-Methylenedioxy-2-nitrobenzylideneamino)guanidine]: the melting point was 205 to 212 °C (dec.).
